These results are taken from ChEMBL document CHEMBL3301361, “Experimental in vitro DMPK and physicochemical data on a set of publicly disclosed compounds”.

As a reminder, the logD is the decadic logarithm of the distribution of all forms, ionised or not, between an organic phase and buffer at a given pH. A low value points to lower lipophilicity.

This series is described as follows: physchem. Particulars: octan-1-ol/water, pH 7.4, LogD7.4.
`CC(C)C(NC(=O)Cn1c(-c2ccccc2)ccc(NS(N)(=O)=O)c1=O)C(=O)C(F)(F)F` (centres undefined) displayed a logD of 1.17.
The compound `CC(C)C(NC(=O)Cn1c(-c2cccs2)ncc(N)c1=O)C(=O)C(F)(F)F` (centres undefined) gave a logD of 0.68.
As for `CC(C)C(NC(=O)Cn1c(-c2ccccc2)ccc(NC(=O)NCc2cc[n+]([O-])cc2)c1=O)C(=O)C(F)(F)F` (centres undefined), the figure is 1.13.
Under `COC(=O)c1c(O)cccc1OC/C=C/c1ccc(F)c(-c2cc(C(=O)O)no2)c1` stands 0.66.
As for `O=c1[nH]n(C(c2ccccn2)C2CC2)c(=O)c2c(O)c3ccc(Cl)cc3nc12` (centres undefined), the figure is 1; as for `O=c1[nH]n(C(c2ccccc2)c2ccncc2)c(=O)c2c(O)c3ccc(Cl)cc3nc12` (centres undefined), 1.1; as for `N=C(N)Nc1ccc(C(=O)Oc2ccc(Cl)cc2)cc1`, 0.7.
For `CC(=O)Nc1ccccn1`, the logD came to 0.5.
Under `Cc1nc(C(=O)N2CCCC3(CCN(Cc4ccc(Cl)cc4)CC3)C2)cs1` stands 0.64; under `Nc1ccc(S(=O)(=O)N2CCCC2)cc1`, 0.98.
For the compound `O=c1[nH][nH]c(=O)c2c(O)c3c(Cl)cc(Cl)cc3nc12`, the logD was 0.89.
Under `O=C([C@@H](O)CO)N1CC=C(c2ccc(N3C[C@H](COc4ccon4)OC3=O)cc2F)CC1` stands 1.09; under `Nc1n[nH]c2ccccc12`, 1.
As to `Cn1sc(NC(=O)c2cccc(Cl)c2)nc1=O`, the logD turned out to be 0.87.
`c1ccc2nc(C3=NCCN3)ccc2c1`: the pH-dependent lipophilicity (logD) is 0.6.
For the compound `Cn1c(-c2ccc(O)nc2)nc2ccccc21`, the logD worked out at 1.2.
The compound `CCn1c(=O)c2c(=O)cc(O)oc2c2ccccc21` had a pH-dependent lipophilicity (logD) of 1.13.
Under `O=Cc1ccccc1B(O)O` stands 0.83.
Under `O=c1c2ccccc2nc2n1CCO2` stands 0.6.
As for `NC(=O)c1cccnc1Oc1ccccc1`, the figure is 1.13; as for `O=S(=O)(Nc1cccnc1)c1ccccc1`, 0.84; as for `Nc1n[nH]c(Nc2ccccc2)n1`, 1.06.
Regarding `CCCCN1Cc2c(nc3cc(-c4ccco4)nn3c2O)C1=O`, the logD was found to be 0.8.
As for `FC(F)(F)c1nnc2ccc(-n3ccnc3)nn12`, the figure is 0.91; as for `Cc1cccc(C(N)=O)c1NC(=O)c1ccccc1`, 1.09; as for `Cc1nc2c(C#N)cnn2c(O)c1Cc1ccccc1`, 0.68.
Under `O=S(=O)(Nc1nnc(-c2ccccc2)s1)c1ccc(Cl)cc1` stands 1.14; under `CC(=O)Nc1ccccc1C`, 1.
As for `Nc1[nH]ncc1S(=O)(=O)c1ccccc1`, the figure is 1.1; as for `COc1ccc(Nc2ccccc2C(=O)O)cc1`, 1.2.
Turning to `Cc1nnsc1C(=O)Nc1ccccc1`, the logD came out at 0.97.
In turn, `Cc1cc(CN2Cc3cccnc3CC2C(=O)Nc2ccc(Cl)cc2Cl)ccc1OCC(=O)O` (centres undefined) registered a log distribution coefficient (logD) of 1.15.
As to `C#Cc1cccc(Nc2nc3cc(C(=O)O)ccc3c3cncnc23)c1`, the logD was 0.92.
Under `Cc1nc(CS(=O)(=O)c2ccccc2)cc(N2CCOCC2)n1` stands 1.07; under `CN(C)C(=O)N1CCC(C(=O)NCc2cccs2)CC1`, 1.1; under `CCNCc1cncc(-c2ccc(F)cc2OC)n1`, 1.18.
As for `Cc1noc(C)c1CCC1CCN(S(=O)(=O)CC2(N(O)C=O)CCOCC2)CC1`, the figure is 0.9.
As for `CC(C)(CS(=O)(=O)N1CCN(c2ccc(F)cc2)CC1)N(O)C=O`, the figure is 1.07; as for `O=c1[nH]c2c(O)ccc([C@@H](O)CNCCOCCCNCCc3cccc(Cl)c3)c2s1`, 0.83; as for `C[C@H]1O[C@@H](n2cnc3c(N)nc(Oc4ccccc4)nc32)[C@H](O)[C@@H]1O`, 1.05.
In the case of `O=C(O)CCn1c2ccccc2c2ccccc21`, the logD is 0.6.
Under `Cc1c(Sc2ccc(Cl)cc2)c2c(Cl)nccc2n1CC(=O)O` stands 0.92; under `c1ccc(CNCCNCc2ccccc2)cc1`, 0.73.
Under `CC(C)Oc1cc(OCCc2cccnc2)cc(C(=O)Nc2ccc(C(=O)O)cn2)c1` stands 0.81.
As for `O=c1[nH]c2c(O)ccc([C@@H](O)CNCCc3ccc(CNCCc4ccccc4)cc3)c2s1`, the figure is 1.11; as for `O=c1[nH]c2c(O)ccc([C@@H](O)CNCCc3cccc(CNCc4ccccc4F)c3)c2s1`, 0.69.
`CN[C@@H](C)C(=O)N[C@H](C(=O)N[C@H]1CCCN(CCc2ccc(O)cc2)C1)C(C)(C)C` displayed a logD of 0.77.
As for `Nc1ncnc2sccc12`, the figure is 1.19.
As for `O=c1cc(N2CCOCC2)oc2cc(O)ccc12`, the figure is 1; as for `CNc1cccc(CCOc2ccc(C[C@H](NC(=O)c3c(C)cc(C)cc3C)C(=O)O)cc2)n1`, 0.52.
For `O=C(N[C@@H](Cc1ccc(CCCCNc2ccccn2)cc1)C(=O)O)c1c(Cl)cccc1Cl`, the logD stood at 0.51.
Under `CCCSc1nc2ccc(NC(=O)CCC(=O)O)cc2s1` stands 0.5; under `Cc1nc2ccc(NC(=O)CCNC(N)=O)cc2s1`, 0.9; under `NC(=O)c1cc2ccccc2nc1N`, 1.07.
Under `N#Cc1ccc(-c2cc(NC(N)=O)c(C(=O)N[C@H]3CCCNC3)s2)cc1` stands 0.61.
Compound `NC(=O)Nc1cc(-c2ccccc2)sc1C(=O)N[C@H]1CCCNC1` displayed a logD of 1.04.
Under `N#Cc1cccc(-c2cccc(-c3nn[nH]n3)c2)c1` stands 0.7; under `CC1CC(=O)Nc2ccccc2N1` (centres undefined), 0.56.
As for `O=C(O)CCCS(=O)(=O)c1cccc(C(=O)N2CCC(N3CCC(Oc4ccc(Cl)c(Cl)c4)CC3)CC2)c1`, the figure is 0.66.
As for `CCCSc1c(C(=O)NC2CCCCC2)cnn1-c1ccc(C(=O)O)cc1`, the figure is 0.64; as for `CCCSc1c(C(=O)N(C)C2CCCCC2)cnn1-c1ccc(C(=O)O)cc1`, 0.59; as for `Nc1nc(-c2ccc(O)cc2)cc(=O)[nH]1`, 1.05.
`O=S(=O)(Nc1cccnc1)c1cccs1` registered a logD of 0.54.
Compound `O=c1c2ccc(Cl)cc2[nH]c2c(O)nn(Cc3ccsc3)c(=O)c12` yielded a logD of 1.11.
As for `Cc1ccsc1Cn1[nH]c(=O)c2[nH]c3cc(Cl)ccc3c(=O)c2c1=O`, the figure is 1.15.
With `COc1cc(/C=C2/SC(=O)NC2=O)cc(OC)c1O`, the log distribution coefficient (logD) is 0.74.
As for `OCC[C@]1(c2ccc(Cl)c(Cl)c2)CCCNC1`, the figure is 0.61; as for `OCC[C@@]1(c2ccc(Cl)c(Cl)c2)CCCNC1`, 0.62; as for `CC(NC(=O)C1(N)CCN(c2ncnc3[nH]ccc23)CC1)c1ccc(S(C)(=O)=O)cc1` (centres undefined), 1.
In the case of `CCOc1ccccc1-c1ccc(-c2nc3ccc(F)cc3c(C(=O)O)c2C)cc1`, the logD came out at 1.18.
Take `O=C(COc1ccccc1)N1CCOCC1`: the logD was 0.75.
Under `CC1(c2ccccc2)CC(=O)NC(N)=N1` (centres undefined) stands 0.62.
Under `O=C(O)COc1ccc(Cl)cc1C1CCCCC1` stands 0.93.
Under `CCNCc1cnc(-c2ccc(C(=O)Nc3ccccc3N)cc2)s1` stands 0.95; under `Cn1sc(NC(=O)c2ccccc2)nc1=O`, 1.13; under `CCOC(=O)c1cc(O)c(-c2ccccc2)nn1`, 0.69.
In turn, `COc1cc2c(Nc3ccc(Cl)cc3F)ncnc2cc1OCC1CCNCC1` had a logD of 1.1.
As for `NCC(O)(c1ccccc1)c1ccccc1`, the figure is 0.9; as for `CC(C)C(NC(=O)Cn1c(-c2ccccc2)ccc(NC(=O)OCc2ccc(C(=O)O)cc2)c1=O)C(=O)C(F)(F)F` (centres undefined), 0.84.
As for `O=S(=O)(Nc1nccs1)c1cc(Cl)ccc1Cl`, the figure is 1.14.
Under `Cc1cc(N)c2cc(NC(=O)CCCCC(=O)Nc3ccc4nc(C)cc(N)c4c3)ccc2n1` stands 0.53; under `CC(C)C(NC(=O)Cn1c(-c2ccccc2)ccc(NC(=O)Cc2ccccc2C(=O)O)c1=O)C(=O)C(F)(F)F` (centres undefined), 1.14.
Consider `CC(C)C(NC(=O)Cn1c(-c2cccc(C(=O)O)c2)ccc(NC(=O)OCc2ccccc2)c1=O)C(=O)C(F)(F)F` (centres undefined), for which the logD was found to be 1.2.
The compound `O=S(=O)(NCCNc1ncccn1)c1cccc2cnccc12` displayed a logD of 0.61.
Consider `O=c1ccc(=O)c2ccccc2[nH]1`, for which the logD stood at 1.02.
Under `CN(CCCc1ccccc1)S(=O)(=O)c1cc(C(=O)N2CCc3ccc(S(=O)(=O)NCCc4ccccc4)cc3C2)c(O)c(O)c1O` stands 0.75; under `CC(C)C[C@H](N)c1nnc(S(=O)(=O)Cc2ccc(F)cc2)o1`, 1.11.
With `COc1cc(C(=O)NS(=O)(=O)c2ccccc2)ccc1Cn1cnc2ccc(NC(=O)CC3CCCC3)cc21`, the logD stood at 0.9.
Under `CC(C)C(NC(=O)Cn1c(-c2ccccc2)ccc(NC(=O)Cc2cccc(C(=O)O)c2)c1=O)C(=O)C(F)(F)F` (centres undefined) stands 0.68.
Under `CC(=O)NC[C@H]1CN(c2ccc(-n3ccnc3)c(F)c2)C(=O)O1` stands 0.7; under `CC(C)C(NC(=O)Cn1c(-c2ccc(F)cc2)ncc(N)c1=O)C(=O)C(F)(F)F` (centres undefined), 1.05.
As for `c1ccc(C2OC3(CCNCC3)c3ccccc32)cc1` (centres undefined), the figure is 0.75; as for `c1cnc2cccnc2c1`, 0.89.
`NC(=O)Nc1sc(-c2ccc(OCCN3CCCCC3)cc2)cc1C(N)=O`: the logD is 1.2.
Under `COC(=O)COc1ccc(O)cc1` stands 0.92; under `CNC(=O)c1ccc(-c2cc(C(=O)N[C@H]3CCCNC3)c(NC(N)=O)s2)cc1`, 0.7.
`O=C(c1cc(Cc2n[nH]c(=O)c3ccccc23)ccc1F)N1CCN(C(=O)C2CCCO2)CC1` (centres undefined) showed a pH-dependent lipophilicity (logD) of 0.9.
As for `COc1ccccc1-c1nnc(N)[nH]1`, the figure is 0.91; as for `CS(=O)(=O)c1ccc(-c2cc(C(=O)N[C@H]3CCCNC3)c(NC(N)=O)s2)cc1`, 0.68; as for `Cc1cc2nc(NC(=N)N)nc(C)c2cc1C`, 0.7.
Under `N=C(N)Nc1ccc(C(=O)Oc2ccc([N+](=O)[O-])cc2)cc1` stands 0.5; under `COc1ccc2nc3ccccc3c(N)c2c1`, 1.
As for `CN(C)c1cccc2c(S(=O)(=O)Nc3cnccn3)cccc12`, the figure is 0.9.
For the compound `COC1/C=C/OC2(C)Oc3c(C)c(O)c4c(c3C2=O)C(=O)C=C(NC(=O)/C(C)=C\C=C\C(C)C(O)C(C)C(O)C(C)C(OC(C)=O)C1C)C4=O` (centres undefined), the logD was 0.7.
